Experimental data taken from patent US8754242B2, “Herbicides” (Syngenta Crop Protection LLC, priority 2007, dated 2014).

What was measured:
Type in all cases: in vivo
Setaria faberi (SETFA) [1] = assay: Test Example 1 pre-emergence herbicidal activity; details: Setaria faberi, 480 h, rate 250 g/ha, evaluated 20 days later, read-out: Pre-emergence activity SETFA (100=total damage to plant; 0=no damage to plant)
How it was run: (§1)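 Once sown in standard soil, pots received an aqueous spray of the formulated active ingredient, either after one day or after ten days of controlled glasshouse growth. Plants then grew under optimum greenhouse conditions. Herbicidal effect was assessed visually 15 (post-emergence) or 20 (pre-emergence) days later, 100 meaning total plant damage.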

[2] = test system: Alopecurus myosuroides (ALOMY); assay: Test Example 1 pre-emergence herbicidal activity; details: Alopecurus myosuroides, 480 h, rate 250 g/ha, evaluated 20 days later, read-out: Pre-emergence activity ALOMY (100=total damage to plant; 0=no damage to plant)
How it was run: as §1

Lolium perenne (LOLPE) [3] = assay: Test Example 1 pre-emergence herbicidal activity; details: Lolium perenne, 480 h, rate 250 g/ha, evaluated 20 days later, read-out: Pre-emergence activity LOLPE (100=total damage to plant; 0=no damage to plant)
How it was run: as §1

[4] = test system: Echinochloa crus-galli (ECHCG); assay: Test Example 1 pre-emergence herbicidal activity; details: Echinochloa crus-galli, 480 h, rate 250 g/ha, evaluated 20 days later, read-out: Pre-emergence activity ECHCG (100=total damage to plant; 0=no damage to plant)
How it was run: as §1

[5] = test system: Digitaria sanguinalis (DIGSA); assay: Test Example 1 pre-emergence herbicidal activity; details: Digitaria sanguinalis, 480 h, rate 250 g/ha, evaluated 20 days later, read-out: Pre-emergence activity DIGSA (100=total damage to plant; 0=no damage to plant)
How it was run: as §1

Avena fatua (AVEFA) [6] = assay: Test Example 1 pre-emergence herbicidal activity; details: Avena fatua, 480 h, rate 250 g/ha, evaluated 20 days later, read-out: Pre-emergence activity AVEFA (100=total damage to plant; 0=no damage to plant)
How it was run: as §1

Setaria faberi (SETFA) [7] = assay: Test Example 1 post-emergence herbicidal activity; details: 360 h, rate 125 g/ha, evaluated 15 days later, read-out: Post-emergence activity SETFA (100=total damage to plant; 0=no damage to plant)
How it was run: as §1

[8] = test system: Alopecurus myosuroides (ALOMY); assay: Test Example 1 post-emergence herbicidal activity; details: 360 h, rate 125 g/ha, evaluated 15 days later, read-out: Post-emergence activity ALOMY (100=total damage to plant; 0=no damage to plant)
How it was run: as §1

Lolium perenne (LOLPE) [9] = assay: Test Example 1 post-emergence herbicidal activity; details: 360 h, rate 125 g/ha, evaluated 15 days later, read-out: Post-emergence activity LOLPE (100=total damage to plant; 0=no damage to plant)
How it was run: as §1

[10] = test system: Echinochloa crus-galli (ECHCG); assay: Test Example 1 post-emergence herbicidal activity; details: 360 h, rate 125 g/ha, evaluated 15 days later, read-out: Post-emergence activity ECHCG (100=total damage to plant; 0=no damage to plant)
How it was run: as §1

[11] = test system: Digitaria sanguinalis (DIGSA); assay: Test Example 1 post-emergence herbicidal activity; details: 360 h, rate 125 g/ha, evaluated 15 days later, read-out: Post-emergence activity DIGSA (100=total damage to plant; 0=no damage to plant)
How it was run: as §1

Avena fatua (AVEFA) [12] = assay: Test Example 1 post-emergence herbicidal activity; details: 360 h, rate 125 g/ha, evaluated 15 days later, read-out: Post-emergence activity AVEFA (100=total damage to plant; 0=no damage to plant)
How it was run: as §1

| SMILES | pest or weed control at 250 g/ha (Setaria faberi (SETFA) [1]) | pest or weed control at 250 g/ha [2] | pest or weed control at 250 g/ha (Lolium perenne (LOLPE) [3]) | pest or weed control at 250 g/ha [4] | pest or weed control at 250 g/ha [5] | pest or weed control at 250 g/ha (Avena fatua (AVEFA) [6]) | pest or weed control at 125 g/ha (Setaria faberi (SETFA) [7]) | pest or weed control at 125 g/ha [8] | pest or weed control at 125 g/ha (Lolium perenne (LOLPE) [9]) | pest or weed control at 125 g/ha [10] | pest or weed control at 125 g/ha [11] | pest or weed control at 125 g/ha (Avena fatua (AVEFA) [12]) |
| --- | --- | --- | --- | --- | --- | --- | --- | --- | --- | --- | --- | --- |
| Cc1cc(C)c(C2=C(O)[C@@H]3[C@@H]4O[C@@H](C[C@H]4C)[C@@H]3C2=O)c(C)c1 [Example T65] | 90% | 100% | 100% | 100% | 100% | 90% | 100% | 90% | 80% | 100% | 100% | 90% |
| CSc1ccc([C@@H]2C[C@@H]3O[C@H]2[C@H]2C(O)=C(c4c(C)cc(C)cc4C)C(=O)[C@H]23)cc1 [Example T66] | 100% | 30% | 40% | 70% | 90% | 60% | 80% | 80% | 50% | 80% | 90% | 80% |
| Cc1cc(C)c(C2=C(O)[C@@H]3[C@@H]4O[C@@H](C[C@H]4c4cccc(C(F)(F)F)c4)[C@@H]3C2=O)c(C)c1 [Example T85] | 70% | 40% | 70% | 70% | 60% | 60% | 70% | 90% | 70% | 100% | 20% | 20% |
| Cc1cc(C)c(C2=C(O)[C@@H]3[C@@H]4O[C@@H](C[C@H]4c4cccc(C#N)c4)[C@@H]3C2=O)c(C)c1 [Example T89] | 30% | 20% | 40% | 20% | 30% | 60% | 90% | 80% | 80% | 100% | 90% | 80% |
| Cc1cc(C)c(C2=C(O)[C@@H]3[C@@H]4O[C@@H](C[C@H]4c4ccc([N+](=O)[O-])cc4)[C@@H]3C2=O)c(C)c1 [Example T90] | 40% | 10% | 20% | 70% | 60% | 60% | 60% | 90% | 60% | 80% | 80% | 80% |
| Cc1cc(C)c(C2=C(O)[C@@H]3[C@@H]4O[C@@H](C[C@H]4c4ccc(OC(F)(F)F)cc4)[C@@H]3C2=O)c(C)c1 [Example T91] | 50% | 20% | 20% | 50% | 70% | 50% | 100% | 90% | 50% | 100% | 100% | 90% |
| Cc1cc(C)c(C2=C(O)[C@@H]3[C@@H]4O[C@@H](C[C@H]4c4ccc(C(F)(F)F)cc4)[C@@H]3C2=O)c(C)c1 [Example T92] | 70% | 20% | 30% | 90% | 70% | 60% | 100% | 100% | 50% | 100% | 100% | 100% |
| Cc1cc(C)c(C2=C(O)[C@@H]3[C@@H]4O[C@@H](C[C@H]4c4ccc(C#N)cc4)[C@@H]3C2=O)c(C)c1 [Example T93] | 30% | 40% | 20% | 0% | 30% | 30% | 100% | 60% | 60% | 100% | 100% | 80% |
| Cc1cc(C)c(C2=C(O)[C@@H]3[C@@H]4O[C@@H](C[C@@H]4C)[C@@H]3C2=O)c(C)c1 [Example T97] | 90% | 100% | 100% | 100% | 100% | 90% | 100% | 90% | 80% | 100% | 100% | 90% |
| Cc1cc(C)c(C2=C(O)[C@@H]3[C@@H]4O[C@@H](C[C@H]4/C=C/c4ccccc4)[C@@H]3C2=O)c(C)c1 [Example T98] | 70% | 30% | 20% | 30% | 0% | 20% | 70% | 70% | 40% | 80% | 60% | 20% |
| CC[C@@H]1C[C@@H]2O[C@H]1[C@H]1C(O)=C(c3c(C)cc(C)cc3C)C(=O)[C@H]12 [Example T106] | 100% | 90% | 100% | 100% | 100% | 90% | 90% | 90% | 80% | 100% | 80% | 80% |
| CC[C@H]1C[C@@H]2O[C@H]1[C@H]1C(O)=C(c3c(C)cc(C)cc3C)C(=O)[C@H]12 [Example T107] | 100% | 90% | 100% | 100% | 100% | 90% | 100% | 100% | 90% | 100% | 100% | 90% |
| Cc1cc(C)c(C2=C(O)[C@H]3[C@@H](C2=O)[C@]2(C)CC(C)[C@@]3(C)O2)c(C)c1 (stereo partly drawn) [Example T125] | 100% | 70% | 100% | 100% | 100% | 70% | 80% | 80% | 70% | 90% | 80% | 70% |
